Laboratory results from ChEMBL document CHEMBL1201862, “PubChem BioAssay data set” (2004).
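Cultured in 96-well plates, cells were exposed to test compound for 48 hours across five concentrations. GI50 = concentration required for 50% inhibition of growth.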 Active and inactive are the calls of the source. Cut-off read from the data, not from the text of the source: active = GI50 up to about 1.1 µM and inactive = higher.

Experiments:
Test in all cases: growth of human tumour cells (NCI), 48 h
[1] = tested on: 786-0
[2] = tested on: A498
[3] = tested on: A549
[4] = tested on: ACHN
[5] = tested on: BT-549
[6] = tested on: CAKI-1
[7] = tested on: CCRF-CEM
[8] = tested on: COLO 205
[9] = tested on: DU-145
[10] = tested on: EKVX
[11] = tested on: HCC 2998
[12] = tested on: HCT-116
[13] = tested on: HL-60
[14] = tested on: HOP-62
[15] = tested on: HOP-92
[16] = tested on: HT-29
[17] = tested on: Hs-578T
[18] = tested on: IGROV-1
[19] = tested on: K562
[20] = tested on: KM12
[21] = tested on: M14
[22] = tested on: MCF7
[23] = tested on: MDA-MB-231
[24] = tested on: MDA-MB-435
[25] = tested on: MDA-N
[26] = tested on: MOLT-4
[27] = tested on: Malme-3M
[28] = tested on: NCI-H226
[29] = tested on: NCI-H23
[30] = tested on: NCI-H460
[31] = tested on: NCI-H522
[32] = tested on: OVCAR-3
[33] = tested on: OVCAR-4
[34] = tested on: OVCAR-5
[35] = tested on: OVCAR-8
[36] = tested on: PC-3
[37] = tested on: RXF 393
[38] = tested on: SF-268
[39] = tested on: SF-295
[40] = tested on: SF-539
[41] = tested on: SK-MEL-28
[42] = tested on: SK-MEL-5
[43] = tested on: SK-OV-3
[44] = tested on: SN12C
[45] = tested on: SNB-19
[46] = tested on: SNB-75
[47] = tested on: SR
[48] = tested on: SW-620
[49] = tested on: T47D
[50] = tested on: TK-10
[51] = tested on: U-251
[52] = tested on: UACC-257
[53] = tested on: UACC-62
[54] = tested on: UO-31

Measured: GI50

C[C@]12CC[C@H](O)CC1=CC[C@@H]1C2CC[C@]2(C)c3nn(-c4ccc(F)cc4)nc3CC12 (some centres undefined)
inactive: [1] 45.3 µM | [2] 60.1 µM | [3] 79.4 µM | [4] 33.1 µM | [5] 63.4 µM | [6] > 100 µM | [7] 58.1 µM | [8] 46.5 µM | [9] 88.3 µM | [10] > 100 µM | [11] 24 µM | [12] 67.3 µM | [13] 17.5 µM | [14] 80.7 µM | [15] > 100 µM | [16] 22.4 µM | [17] 39.3 µM | [18] > 100 µM | [19] 4.51 µM | [20] 24.3 µM | [21] 32.6 µM | [22] > 100 µM | [23] > 100 µM | [24] 87.3 µM | [25] 81.8 µM | [26] 96.4 µM | [27] 74 µM | [28] 44.2 µM | [29] 63.4 µM | [30] 23.4 µM | [31] 58.3 µM | [32] > 100 µM | [33] 16.6 µM | [34] 67.1 µM | [35] 85.7 µM | [36] 52.2 µM | [37] 61.5 µM | [38] 73.8 µM | [39] 34 µM | [40] 18.2 µM | [41] > 100 µM | [42] 52.8 µM | [43] 39.4 µM | [44] 71 µM | [45] 73.3 µM | [46] 28.6 µM | [47] > 100 µM | [48] > 100 µM | [49] 24.4 µM | [50] > 100 µM | [51] 95.5 µM | [52] 46.8 µM | [53] 43.7 µM | [54] 81.1 µM
